Assay results published in ChEMBL document CHEMBL2062457, “Synthesis and antibacterial activity of desosamine-modified macrolide derivatives” (2012).
Converted amounts (≈) assume the structure as drawn.

Tests used:
Assay type in all cases: functional
Staphylococcus aureus [1] = test: Antibacterial activity against macrolide-resistant Staphylococcus aureus ATCC 33591 constitutively expressing ermA
Staphylococcus aureus [2] = test: Antibacterial activity against macrolide-susceptible Staphylococcus aureus ATCC 29213
Staphylococcus aureus [3] = test: Ratio of MIC for macrolide-resistant Staphylococcus aureus ATCC 33591 to MIC for macrolide-susceptible Staphylococcus aureus ATCC 29213

Row | SMILES | MIC (Staphylococcus aureus [1]) | MIC (Staphylococcus aureus [2]) | Ratio (Staphylococcus aureus [3])
1 | CC[C@H]1OC(=O)[C@H](C)[C@@H](O[C@H]2C[C@@](C)(OC)[C@@H](O)[C@H](C)O2)[C@H](C)[C@@H](O[C@@H]2O[C@H](C)C[C@H](NC)[C@H]2O)[C@](C)(OC)C[C@@H](C)C(=O)[C@H](C)[C@@H](O)[C@]1(C)O | > 256 µg/mL | 4 µg/mL (≈ 5.45 µM) | 
2 | CC[C@H]1OC(=O)[C@H](C)[C@@H](O[C@H]2C[C@@](C)(OC)[C@@H](O)[C@H](C)O2)[C@H](C)[C@@H](O[C@@H]2O[C@H](C)C[C@H](NC)[C@H]2O)[C@](C)(O)C[C@@H](C)C(=O)[C@H](C)[C@@H](O)[C@]1(C)O | > 256 µg/mL | 8 µg/mL (≈ 11.1 µM) | 
3 | CC[C@H]1OC(=O)[C@H](C)C(=O)[C@H](C)[C@@H](O[C@@H]2O[C@H](C)C[C@H](NC)[C@H]2O)[C@](C)(OC)C[C@@H](C)C(=O)[C@H](C)[C@H]2N(CCCCn3cnc(-c4cccnc4)c3)C(=O)O[C@]12C | > 256 µg/mL | 16 µg/mL (≈ 20.1 µM) | 
4 | CCCCN(C)[C@@H]1C[C@H](O[C@@H]2[C@@H](C)C(=O)[C@@H](C)C(=O)O[C@H](CC)[C@@]3(C)OC(=O)N(CCCCn4cnc(-c5cccnc5)c4)[C@@H]3[C@@H](C)C(=O)[C@H](C)C[C@@]2(C)OC)O[C@H](C)C1 | > 256 µg/mL | 64 µg/mL (≈ 76.4 µM) | 
5 | CC[C@H]1OC(=O)[C@H](C)[C@@H](O[C@H]2C[C@@](C)(OC)[C@@H](O)[C@H](C)O2)[C@H](C)[C@@H](O[C@H]2C[C@@H](N(C)C)C[C@@H](C)O2)[C@](C)(OC)C[C@@H](C)C(=O)[C@H](C)[C@@H](O)[C@]1(C)O | > 256 µg/mL | 64 µg/mL (≈ 87.4 µM) | 
6 | CC[C@H]1OC(=O)[C@H](C)C(=O)[C@H](C)[C@@H](O[C@H]2C[C@@H](N(C)C)C[C@@H](C)O2)[C@](C)(OC)C[C@@H](C)C(=O)[C@H](C)[C@H]2N(CCCCn3cnc(-c4cccnc4)c3)C(=O)O[C@]12C | > 256 µg/mL | 8 µg/mL (≈ 10.1 µM) | 
7 | CC[C@H]1OC(=O)[C@H](C)[C@@H](O[C@H]2C[C@@](C)(OC)[C@@H](O)[C@H](C)O2)[C@H](C)[C@@H](O[C@@H]2O[C@H](C)C[C@H](N(C)C)[C@H]2O)[C@](C)(O)C[C@@H](C)C(=O)[C@H](C)[C@@H](O)[C@]1(C)O [ERYTHROMYCIN] | > 256 µg/mL | 0.5 µg/mL (≈ 0.681 µM) | 
8 | CC[C@H]1OC(=O)[C@H](C)[C@@H](O[C@H]2C[C@@](C)(OC)[C@@H](O)[C@H](C)O2)[C@H](C)[C@@H](O[C@H]2C[C@@H](N(C)C)C[C@@H](C)O2)[C@](C)(O)C[C@@H](C)C(=O)[C@H](C)[C@@H](O)[C@]1(C)O | > 256 µg/mL | 64 µg/mL (≈ 89.1 µM) | 
9 | CC[C@H]1OC(=O)[C@H](C)C(=O)[C@H](C)[C@@H](O[C@H]2C[C@@H](N(C)C)C[C@@H](C)O2)[C@](C)(OC/C=C/c2cnc3ccccc3c2)C[C@@H](C)C(=O)[C@H](C)[C@H]2NC(=O)O[C@@]21C | > 256 µg/mL | 4 µg/mL (≈ 5.33 µM) | 
10 | CC[C@H]1OC(=O)[C@H](C)C(=O)[C@H](C)[C@@H](O[C@@H]2O[C@H](C)C[C@H](N(C)C)[C@H]2O)[C@](C)(OCC=Cc2cnc3ccccc3c2)C[C@@H](C)C(=O)[C@H](C)[C@H]2NC(=O)O[C@@]21C [CETHROMYCIN] | > 256 µg/mL | 0.0075 µg/mL (≈ 0.00979 µM) | >10000
11 | CCCCN(C)[C@H]1C[C@@H](C)O[C@@H](O[C@@H]2[C@@H](C)C(=O)[C@@H](C)C(=O)O[C@H](CC)[C@@]3(C)OC(=O)N(CCCCn4cnc(-c5cccnc5)c4)[C@@H]3[C@@H](C)C(=O)[C@H](C)C[C@@]2(C)OC)[C@@H]1O | > 256 µg/mL | 0.5 µg/mL (≈ 0.585 µM) | 
12 | CC[C@H]1OC(=O)[C@H](C)[C@@H](O[C@H]2C[C@@](C)(OC)[C@@H](O)[C@H](C)O2)[C@H](C)[C@@H](O[C@@H]2O[C@H](C)C[C@H](N(C)C(=N)N)[C@H]2O)[C@](C)(OC)C[C@@H](C)C(=O)[C@H](C)[C@@H](O)[C@]1(C)O | > 256 µg/mL | 32 µg/mL (≈ 41.2 µM) | 
13 | CC[C@H]1OC(=O)[C@H](C)C(=O)[C@H](C)[C@@H](O[C@@H]2O[C@H](C)C[C@H](N(C)C)[C@H]2O)[C@](C)(OC)C[C@@H](C)C(=O)[C@H](C)[C@H]2N(CCCCn3cnc(-c4cccnc4)c3)C(=O)O[C@]12C [TELITHROMYCIN] | > 256 µg/mL | 0.08 µg/mL (≈ 0.0985 µM) | 
